Data taken from the NIST ThermoML archive (doi:10.1021/acs.jced.9b00185).

Experiments:
[1] = 298.15 K; 101.33 kPa; Liquid; Vibrating tube method
[2] = refractive index (Na D-line) (dimensionless); conditions: 298.15 K; 101.33 kPa; Liquid; Standard Abbe refractometry
[3] = excess molar enthalpy (molar enthalpy of mixing); xn = mol fraction of the nth substance listed; conditions: 298.15 K, 98.8 kPa, Liquid, Calvet calorimetry
[4] = xn = mol fraction of the nth substance listed; conditions: 298.15 K, 98.8 kPa, Liquid, Vibrating tube method

CCCCCCCCCC [decane]
Conditions	mass density [kg/m3]	refractive index
[1]	726.61	–
[2]	–	1.41

CCCCCCCCCC [decane] + CCCCCCCCCC(=O)OC
Conditions	excess molar enthalpy [kcal/mol]
[3], x2 = 0	0

CCCCCCCCCCCC [dodecane]
Conditions	mass density [kg/m3]	refractive index
[1]	745.2	–
[2]	–	1.4197

CCCCCCCCCCCC [dodecane] + CCCCCCCCCC(=O)OC
x2 = 0
Conditions	excess molar enthalpy [kcal/mol]	mass density [kg/m3]
[3]	0	–
[4]	–	745.2

CCCCCCCCCCCCCCCC [hexadecane]
Conditions	mass density [kg/m3]	refractive index
[1]	769.8	–
[2]	–	1.4323

CCCCCCCCCCCCCCCC [hexadecane] + CCCCCCCCCC(=O)OC
x2 = 0
Conditions	excess molar enthalpy [kcal/mol]	mass density [kg/m3]
[3]	0	–
[4]	–	769.8

CCCCCC [hexane]
Conditions	mass density [kg/m3]	refractive index
[1]	654.81	–
[2]	–	1.3725

CCCCCC [hexane] + CCCCCCCCCC(=O)OC
Conditions	excess molar enthalpy [kcal/mol]
[3], x2 = 0	0

CCCCCCCCCC(=O)OC [methyl decanoate]
Conditions	mass density [kg/m3]	refractive index
[1]	868.02	–
[2]	–	1.4235

CCCCCCCCCC(=O)OC [methyl decanoate] + CCCCCC
[3]
Conditions	excess molar enthalpy [kcal/mol]
x1 = 0.0479	0.0382
x1 = 0.0943	0.0636
x1 = 0.1448	0.081
x1 = 0.1927	0.105
x1 = 0.2477	0.114
x1 = 0.3077	0.123
x1 = 0.3542	0.126
x1 = 0.4059	0.125
x1 = 0.4574	0.12
x1 = 0.5055	0.113
x1 = 0.5557	0.107
x1 = 0.6037	0.0985
x1 = 0.6531	0.088
x1 = 0.7032	0.077
x1 = 0.752	0.0679
x1 = 0.8028	0.0543
x1 = 0.8496	0.0399
x1 = 0.9014	0.0277
x1 = 0.9328	0.0174
x1 = 1	0

CCCCCCCCCC(=O)OC [methyl decanoate] + CCCCCCCC
[3]
Conditions	excess molar enthalpy [kcal/mol]
x1 = 0.0551	0.0394
x1 = 0.1035	0.0691
x1 = 0.154	0.0949
x1 = 0.2078	0.113
x1 = 0.2514	0.127
x1 = 0.3088	0.137
x1 = 0.3584	0.143
x1 = 0.399	0.147
x1 = 0.4514	0.146
x1 = 0.5051	0.143
x1 = 0.5555	0.137
x1 = 0.599	0.131
x1 = 0.657	0.115
x1 = 0.7066	0.103
x1 = 0.7511	0.0913
x1 = 0.8069	0.0712
x1 = 0.8577	0.0533
x1 = 0.9098	0.0351
x1 = 0.9561	0.0167
x1 = 1	0

CCCCCCCCCC(=O)OC [methyl decanoate] + CCCCCCCCCC
[3]
Conditions	excess molar enthalpy [kcal/mol]
x1 = 0.0469	0.033
x1 = 0.0985	0.0662
x1 = 0.1523	0.0915
x1 = 0.2018	0.115
x1 = 0.2537	0.133
x1 = 0.3062	0.15
x1 = 0.3563	0.156
x1 = 0.4008	0.16
x1 = 0.4543	0.162
x1 = 0.5058	0.159
x1 = 0.5498	0.156
x1 = 0.6017	0.146
x1 = 0.6524	0.133
x1 = 0.7078	0.114
x1 = 0.7597	0.0994
x1 = 0.8086	0.0813
x1 = 0.8592	0.0607
x1 = 0.9058	0.0406
x1 = 0.9566	0.0151
x1 = 1	0

CCCCCCCCCC(=O)OC [methyl decanoate] + CCCCCCCCCCCC
Conditions	excess molar enthalpy, [3] [kcal/mol]	mass density, [4] [kg/m3]
x1 = 0.05	–	750.68
x1 = 0.0512	0.0394	–
x1 = 0.1	–	756.24
x1 = 0.1129	0.076	–
x1 = 0.1503	–	761.93
x1 = 0.1513	0.101	–
x1 = 0.1998	–	767.59
x1 = 0.2021	0.119	–
x1 = 0.25	–	773.38
x1 = 0.2513	0.141	–
x1 = 0.299	0.152	–
x1 = 0.3001	–	779.28
x1 = 0.3506	–	785.27
x1 = 0.3572	0.163	–
x1 = 0.3996	–	791.16
x1 = 0.4051	0.169	–
x1 = 0.4473	0.172	–
x1 = 0.4497	–	797.22
x1 = 0.5002	–	803.37
x1 = 0.5033	0.172	–
x1 = 0.55	–	809.54
x1 = 0.5502	0.169	–
x1 = 0.5952	0.163	–
x1 = 0.5998	–	815.74
x1 = 0.6499	–	822.04
x1 = 0.652	0.15	–
x1 = 0.6994	–	828.35
x1 = 0.7089	0.132	–
x1 = 0.7495	–	834.79
x1 = 0.7524	0.117	–
x1 = 0.7996	–	841.3
x1 = 0.8098	0.0954	–
x1 = 0.8493	–	847.78
x1 = 0.8525	0.0731	–
x1 = 0.8997	–	854.45
x1 = 0.9019	0.0485	–
x1 = 0.9496	–	861.18
x1 = 0.9586	0.0196	–
x1 = 1	0	868.02

CCCCCCCCCC(=O)OC [methyl decanoate] + CCCCCCCCCCCCCC
Conditions	excess molar enthalpy, [3] [kcal/mol]	mass density, [4] [kg/m3]
x1 = 0.0498	–	763.35
x1 = 0.0633	0.0497	–
x1 = 0.0922	0.0712	–
x1 = 0.1001	–	767.69
x1 = 0.1502	–	772.18
x1 = 0.1577	0.108	–
x1 = 0.1964	0.126	–
x1 = 0.1998	–	776.73
x1 = 0.2496	–	781.41
x1 = 0.258	0.152	–
x1 = 0.2999	–	786.24
x1 = 0.3045	0.163	–
x1 = 0.3501	–	791.21
x1 = 0.3597	0.176	–
x1 = 0.3944	0.184	–
x1 = 0.4001	–	796.26
x1 = 0.4492	0.19	–
x1 = 0.4498	–	801.43
x1 = 0.5001	–	806.77
x1 = 0.5076	0.19	–
x1 = 0.5498	–	812.19
x1 = 0.5535	0.185	–
x1 = 0.5997	–	817.76
x1 = 0.607	0.173	–
x1 = 0.6499	–	823.51
x1 = 0.6586	0.161	–
x1 = 0.6999	–	829.37
x1 = 0.7089	0.146	–
x1 = 0.7501	–	835.45
x1 = 0.7542	0.131	–
x1 = 0.799	–	841.48
x1 = 0.8009	0.115	–
x1 = 0.8477	0.0946	–
x1 = 0.849	–	847.78
x1 = 0.8974	0.0676	–
x1 = 0.8992	–	854.34
x1 = 0.9455	0.0423	–
x1 = 0.95	–	861.12
x1 = 1	0	868.02

CCCCCCCCCC(=O)OC [methyl decanoate] + CCCCCCCCCCCCCCCC
Conditions	excess molar enthalpy, [3] [kcal/mol]	mass density, [4] [kg/m3]
x1 = 0.0499	–	773.1
x1 = 0.0636	0.0471	–
x1 = 0.0998	–	776.6
x1 = 0.1131	0.081	–
x1 = 0.1501	–	780.26
x1 = 0.1619	0.107	–
x1 = 0.2	–	783.98
x1 = 0.201	0.129	–
x1 = 0.2497	–	787.88
x1 = 0.2575	0.153	–
x1 = 0.3006	–	791.99
x1 = 0.3056	0.17	–
x1 = 0.3497	–	796.11
x1 = 0.3584	0.184	–
x1 = 0.398	0.195	–
x1 = 0.4001	–	800.47
x1 = 0.4494	0.198	–
x1 = 0.45	–	804.97
x1 = 0.4955	0.198	–
x1 = 0.4997	–	809.64
x1 = 0.5479	0.195	–
x1 = 0.5502	–	814.55
x1 = 0.5983	0.188	–
x1 = 0.5995	–	819.57
x1 = 0.6494	0.177	–
x1 = 0.6501	–	824.85
x1 = 0.6996	–	830.28
x1 = 0.7034	0.163	–
x1 = 0.7497	–	835.95
x1 = 0.7512	0.145	–
x1 = 0.7997	–	841.91
x1 = 0.8015	0.126	–
x1 = 0.8489	–	847.93
x1 = 0.8493	0.102	–
x1 = 0.8992	–	854.43
x1 = 0.8995	0.0707	–
x1 = 0.9494	–	861.11
x1 = 0.9495	0.0366	–
x1 = 1	0	868.02

CCCCCCCC [octane]
Conditions	mass density [kg/m3]	refractive index
[1]	698.45	–
[2]	–	1.3955

CCCCCCCC [octane] + CCCCCCCCCC(=O)OC
Conditions	excess molar enthalpy [kcal/mol]
[3], x2 = 0	0

CCCCCCCCCCCCCC [tetradecane]
Conditions	mass density [kg/m3]	refractive index
[1]	759.17	–
[2]	–	1.4273

CCCCCCCCCCCCCC [tetradecane] + CCCCCCCCCC(=O)OC
x2 = 0
Conditions	excess molar enthalpy [kcal/mol]	mass density [kg/m3]
[3]	0	–
[4]	–	759.17
